In PubChem BioAssay (NCI) one finds GI50 and TGI data, which are given here for 7 compounds.

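These data come from cells grown in 96-well plates and exposed to compound for 48 hours at five concentrations. GI50 is the concentration that inhibits growth by half. The concentration for full growth arrest is given as TGI.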

Among the test systems are SK-MEL-28 melanoma; UACC-257 melanoma; OVCAR-3 ovarian; OVCAR-4 ovarian; SF-295 CNS; HCT-15 colon; NCI/ADR-RES ovarian; HCC-2998 colon; U251 CNS; NCI-H226 lung.
What all share (assay): NCI tumour cell line growth inhibition, 48 h

Turning to `CCCCn1c(=O)[nH]c(N)c([C@@H]2c3c([nH]c(=O)n(CCCC)c3=O)Oc3ccc4ccccc4c32)c1=O`, the GI50 was 2.52 µM with SK-MEL-28 melanoma; 2.41 µM in the assay with UACC-257 melanoma; 1.63 µM in the assay with OVCAR-3 ovarian; 2.26 µM in the assay with OVCAR-4 ovarian; 5.83 µM in the assay with SF-295 CNS; 1.67 µM in the assay with HCT-15 colon. Further, the GI50 with NCI/ADR-RES ovarian was 2.82 µM; in the assay on HCC-2998 colon, 1.67 µM; with U251 CNS, 1.73 µM; in the assay on NCI-H226 lung, 4.96 µM. Besides, the TGI is 6.23 µM in the assay with SK-MEL-28 melanoma; 5.78 µM with UACC-257 melanoma; 2.98 µM with OVCAR-3 ovarian; 10.8 µM in the assay on OVCAR-4 ovarian; 19.2 µM in the assay with SF-295 CNS; 3.41 µM in the assay with HCT-15 colon. For the same compound, the TGI worked out at 8.84 µM in the assay on NCI/ADR-RES ovarian, 3.47 µM in the assay with HCC-2998 colon, 3.32 µM with U251 CNS and 25.2 µM in the assay on NCI-H226 lung.
Regarding `CC(C)(C)CC(C)(C)c1ccc(OCCO)cc1`, the GI50 is 11.4 µg/mL with SK-MEL-28 melanoma; 2.39 µg/mL in the assay with UACC-257 melanoma; 2.63 µg/mL in the assay on OVCAR-3 ovarian; 1.5 µg/mL in the assay on OVCAR-4 ovarian; 1.07 µg/mL in the assay with SF-295 CNS; 7.74 µg/mL with HCT-15 colon. Further, the GI50 in the assay on NCI/ADR-RES ovarian is 2.61 µg/mL; in the assay with HCC-2998 colon, 7.57 µg/mL; with U251 CNS it was 5.34 µg/mL; with NCI-H226 lung, 2.44 µg/mL. Moreover, the TGI worked out at 29.7 µg/mL with SK-MEL-28 melanoma; 16.9 µg/mL in the assay on UACC-257 melanoma; 13.4 µg/mL in the assay on OVCAR-3 ovarian; 21.5 µg/mL in the assay with OVCAR-4 ovarian; 8.56 µg/mL in the assay on SF-295 CNS; 19.3 µg/mL in the assay on HCT-15 colon. In addition, the TGI turned out to be 18.1 µg/mL with NCI/ADR-RES ovarian, 19.7 µg/mL with HCC-2998 colon, 19.6 µg/mL in the assay on U251 CNS and 15.8 µg/mL in the assay on NCI-H226 lung.
For `O=C1NC(=O)C(c2c[nH]c3ccccc23)=C1c1c[nH]c2ccccc12`, the GI50 in the assay on SK-MEL-28 melanoma was 15.1 µM; in the assay with UACC-257 melanoma, 15.6 µM; with OVCAR-3 ovarian, 17.5 µM; in the assay on OVCAR-4 ovarian, 10.9 µM; with SF-295 CNS it was 13.3 µM; with HCT-15 colon, 8.32 µM. For the same compound, the GI50 in the assay with NCI/ADR-RES ovarian was 12.8 µM; in the assay with HCC-2998 colon, 16.2 µM; with U251 CNS it was 10.2 µM; with NCI-H226 lung, 3.83 µM. Moreover, the TGI with SK-MEL-28 melanoma, in the assay with UACC-257 melanoma, in the assay on OVCAR-3 ovarian, in the assay on OVCAR-4 ovarian, in the assay on SF-295 CNS and with HCT-15 colon was greater than 25 µM throughout. Moreover, the TGI with NCI/ADR-RES ovarian, with HCC-2998 colon, in the assay on U251 CNS and with NCI-H226 lung was greater than 25 µM each time.
Regarding `CN1CCN(Cc2ccc(NC(=O)c3cncc(C#Cc4cnc(N)c5ncccc45)c3)cc2C(F)(F)F)CC1`, the GI50 with SK-MEL-28 melanoma is 0.389 µM; in the assay on UACC-257 melanoma, 0.639 µM; in the assay with OVCAR-3 ovarian, 0.781 µM; in the assay with OVCAR-4 ovarian, 0.1 µM; with SF-295 CNS, 0.55 µM; in the assay on HCT-15 colon, 0.314 µM. Moreover, the GI50 is 0.685 µM in the assay with NCI/ADR-RES ovarian, 0.539 µM with HCC-2998 colon, 0.509 µM in the assay on U251 CNS and 0.267 µM in the assay with NCI-H226 lung. In addition, the TGI in the assay on SK-MEL-28 melanoma was 1.59 µM; in the assay on UACC-257 melanoma, 5.6 µM; with OVCAR-3 ovarian, 4.88 µM; with OVCAR-4 ovarian, 1.29 µM; in the assay on SF-295 CNS, 15.5 µM; in the assay with HCT-15 colon, 12.7 µM. The TGI was 3.13 µM with NCI/ADR-RES ovarian, 16.7 µM in the assay on HCC-2998 colon, 2.18 µM in the assay with U251 CNS and 12.5 µM in the assay on NCI-H226 lung.
For the compound `O=c1nc2n(-c3cccc(Cl)c3)c3ccc([N+](=O)[O-])cc3cc-2c(=O)[nH]1`, the GI50 was 8.01 µM with SK-MEL-28 melanoma; 9.78 µM in the assay with UACC-257 melanoma; 1.08 µM in the assay with OVCAR-3 ovarian; greater than 25 µM in the assay on OVCAR-4 ovarian; 4.92 µM in the assay with SF-295 CNS; 9.28 µM in the assay with HCT-15 colon. Further, the GI50 is 6.15 µM in the assay with NCI/ADR-RES ovarian, 4.92 µM with HCC-2998 colon, 2.63 µM with U251 CNS and 5.51 µM in the assay on NCI-H226 lung. In addition, the TGI is greater than 25 µM in the assay with SK-MEL-28 melanoma; greater than 25 µM in the assay with UACC-257 melanoma; 4.42 µM in the assay on OVCAR-3 ovarian; greater than 25 µM in the assay on OVCAR-4 ovarian; 10.9 µM in the assay on SF-295 CNS; greater than 25 µM in the assay on HCT-15 colon. The TGI in the assay with NCI/ADR-RES ovarian is 19.7 µM; in the assay with HCC-2998 colon, 11 µM; with U251 CNS it was greater than 25 µM; with NCI-H226 lung, 13.6 µM.
On to `COc1ccc(C2=NN(C(N)=S)C(c3ccc4c(c3)OCO4)C2)cc1` (stereo not given), for which the GI50 in the assay with SK-MEL-28 melanoma is 9.33 µM; in the assay on UACC-257 melanoma, 3.96 µM; in the assay with OVCAR-3 ovarian, 2.07 µM; with OVCAR-4 ovarian, 3.4 µM; with SF-295 CNS, 2.64 µM; in the assay with HCT-15 colon, 2.88 µM. Also, the GI50 is 2.9 µM in the assay on NCI/ADR-RES ovarian, 2.3 µM with HCC-2998 colon, 3.05 µM with U251 CNS and 2.49 µM in the assay with NCI-H226 lung. The TGI was greater than 100 µM with SK-MEL-28 melanoma; 68.5 µM with UACC-257 melanoma; 4.72 µM in the assay with OVCAR-3 ovarian; greater than 100 µM in the assay with OVCAR-4 ovarian; 11.9 µM in the assay on SF-295 CNS; greater than 100 µM with HCT-15 colon. Also, the TGI in the assay with NCI/ADR-RES ovarian stood at 12.6 µM; in the assay on HCC-2998 colon, 5.85 µM; in the assay with U251 CNS, 19.6 µM; in the assay on NCI-H226 lung it was 6.84 µM.
With `Nc1ccc(/C=C/c2ccc3ncccc3c2)cc1`, the GI50 in the assay on SK-MEL-28 melanoma is greater than 100 µM; with UACC-257 melanoma, greater than 100 µM; in the assay with OVCAR-3 ovarian it was greater than 100 µM; in the assay with OVCAR-4 ovarian, greater than 100 µM; with SF-295 CNS it was 70.3 µM; in the assay with HCT-15 colon, greater than 100 µM. For the same compound, the GI50 in the assay with NCI/ADR-RES ovarian, with HCC-2998 colon, in the assay on U251 CNS and in the assay with NCI-H226 lung was greater than 100 µM in each case. Further, the TGI with SK-MEL-28 melanoma, with UACC-257 melanoma, in the assay on OVCAR-3 ovarian, with OVCAR-4 ovarian, in the assay on SF-295 CNS and in the assay with HCT-15 colon was greater than 100 µM in each case. Further, the TGI with NCI/ADR-RES ovarian, in the assay on HCC-2998 colon, in the assay with U251 CNS and in the assay on NCI-H226 lung was greater than 100 µM throughout.
